Reference: patent publication US20040166062A1, “Ablation therapy using chemical shift magnetic resonance imaging” (priority 2003, published 2004)

What was measured:
[1] = test system: hepatocellular carcinoma less than about 3 cm; conditions: randomized, controlled trial, patients with hepatocellular carcinoma less than about 3 cm; cited from earlier work
calf liver = calf liver ex vivo, 8 cc glacial acetic acid injected by hand over 2 minutes
Source text: An MRI-compatible, 10 cm, 22-gauge needle was inserted into a calf liver that was placed in a transmit/receive birdcage coil. […] The offset frequency of the chemical saturation pulse was set at 170 Hz. […] A complete 3D data set was acquired every 15 seconds. Scanning parameters were: 20 degree flip angle, TE=4.2 msec, TR=34 msec, matrix=256×128×4, 1 signal average, and 32 kHz receiver bandwidth. A total of 15 temporal phases was acquired, each with approximately 15 second time resolution.
The time after injection appears in seconds in the lower left corner of each frame.

[2] = test system: unresectable hepatocellular carcinoma
Protocol: After obtaining standard T1 and T2-weighted imaging, an MR-compatible 10 cm long, 22-gauge needle was advanced into the lesions. Baseline imaging was performed using a water-suppressed two-dimensional spoiled gradient-echo pulse sequence. […] The scanning parameters were: 30 degree flip angle, TE=4.2 msec, TR=34 msec, 34-38 cm field-of-view, ±16 kHz receiver bandwidth, 256×128 matrix, and 7 mm slice thickness.

breast tumor = test system: breast tumor
Source text: (§1) An MR-compatible needle is advanced into the lesions to introduce the ablation agent.

lung tumor = test system: lung tumor
Source text: as §1

renal tumor = test system: renal tumor
Source text: as §1

prostate tumor = test system: prostate tumor
Source text: as §1

multifocal hepatoma = conditions: Patient 3, post-injection, signal low in intensity
hepatic tumor = assay: Paper example: CS-MRI guided chemical ablation of a hepatic tumor; conditions: for outcome of chemical ablation therapy: hepatic tumor, slow injection under CS-MRI
Protocol: as §1
(§2) A patient presents for ethanol ablation therapy of a hepatic tumor. The patient is prepared by placement on the MRI scanner platform and the spectrometer is calibrated for ^13C-labeled ethanol using standard T1 and T2-weighted imaging. An MR-compatible needle is advanced into the lesions to introduce the ablation agent. Dynamic two-dimensional, chemical shift MRI is performed during the slow injection of ^13C-labeled ethanol. The distribution of ^13C-labeled ethanol is then directly visualized using chemical shift MRI.
as §2, with “hot saline” for “ethanol”, “^23Na-labeled saline” for “^13C-labeled ethanol”, “^23Na-labeled saline.” for “^13C-labeled ethanol.”

CC(=O)O [acetic acid]
effectiveness of ablation compared with ethanol ablation [1]: more effective than ethanol ablation
distribution of the agent at the injection site on CS-MRI (calf liver): focal accumulation of acetic acid adjacent to the needle tip
size of the lesion versus distribution of the agent ([2]; Patient 2): closely matches
extra-hepatic extravasation of the agent ([2]; in vivo): No extra-hepatic extravasation of the agent is observed
outcome of chemical ablation therapy (breast tumor): successful in destroying the tumor
outcome of chemical ablation therapy (lung tumor): successful in destroying the tumor
outcome of chemical ablation therapy (renal tumor): successful in destroying the tumor
outcome of chemical ablation therapy (prostate tumor): successful in destroying the tumor

CCO [ethanol]
distribution of the agent on CS-MRI (multifocal hepatoma): focal signal accumulation due to ethanol injection is observed

^13C-labeled acetic acid
outcome of chemical ablation therapy (hepatic tumor): successful in destroying the tumor

^13C-labeled ethanol
outcome of chemical ablation therapy (hepatic tumor): successful in destroying the tumor
damage to surrounding tissues (hepatic tumor; in vivo): without damage to surrounding tissues
